Data set [1] has as its system NF-κB. As to the kind of experiment: NF-κB-driven luciferase reporter gene transactivation in TNF-α-stimulated HEK293/NF-κB-luc cells. It is filed as cell-based. Particulars: for NFκB % Inhibition (30 µM) / inhibition at 30 µM / IC50: HEK/NFκB-luc cells stimulated with TNF-α; for NFκB % Inhibition (30 µM) / inhibition at 30 µM: means ± SD of 4 replicates; for effect on NF-κB activation: pure compound, screening 30 µM; for inhibition at 30 µM / IC50: Homo sapiens, HEK293. On the procedure: (§1) To evaluate the pharmacological activity of the extracts, all extracts were assayed in three different cellular in vitro models that are relevant in the context of inflammation. […] In these cells, the potential impact of the extracts on cell viability was assessed (Figure 2C).
(§2) Assays were performed as previously described. Extracts were dissolved in dimethyl sulfoxide (DMSO) and further diluted in cell culture medium to obtain a final concentration of 50 µg/mL; DMSO at the respective final concentration (<0.1%) was used as vehicle control in each assay. OPLS-DA candidate compounds were also dissolved in DMSO to obtain a final screening concentration of 30 µM.
Transactivation activity of a NF-κB-driven luciferase reporter gene was determined in TNF-α (2 ng/mL)-stimulated HEK293/NF-κB-luc cells (Panomics, RC0014), using 5 µM parthenolide (Sigma-Aldrich, St. Louis, MO, USA) as positive control. Differences in cell viability were detected by comparing the fluorescence of vehicle-treated cells and cells treated with sample solutions upon staining with CellTracker Green CMFDA (C2925; Invitrogen), a fluorescent probe that is retained inside living cells. Screening samples were tested in three independent experiments, each performed in quadruplicate.
(§3) To determine the IC50 values, pure compounds showing significant inhibitory activity at the screening concentration were tested at 5–10 concentrations, each with 4 replicates.
A general note: In a reporter assay the amount or activity of a reporter protein is the signal.

For data set [2], the system named is IL-8 expression. Nature of the data set: IL-8 expression in LPS-stimulated HUVECtert cells. Type of data set: cell-based. Particulars: for IL-8 % Inhibition (30 µM) / inhibition at 30 µM / IC50: HUVECtert cells stimulated with LPS; for IL-8 % Inhibition (30 µM) / inhibition at 30 µM: means ± SD of 5 replicates, b: one sample pooled from the 5 replicates; for effect on IL-8 expression: pure compound, screening 30 µM. How it is done:
as §1, §2
[…] Impact of test samples on cell viability was determined after 6 h of stimulation by XTT. […] After incubation for 2 h, absorbance was measured at 450 nm. Samples decreasing cell viability by more than 30% were considered to negatively influence cell viability.
as §3

In data set [3] the test system is NO production. Nature of the data set: NO release from LPS/IFN-γ-stimulated RAW 264.7 macrophages (Griess). Type of data set: cell-based, mouse. The conditions noted are these: for NO % Inhibition (30 µM) / inhibition at 30 µM: means ± SD of 3 experiments in duplicates; for effect on NO production: pure compound, screening 30 µM. On the procedure: as §1, §2
After removing 50 µL of the supernatants to react with Griess reagent (Sigma Aldrich), cells were incubated with XTT reagent (XTT proliferation kit II, Sigma Aldrich). NO production (Griess reaction) and metabolic activity of the cells (XTT formazan product) were photometrically measured. Tests were performed in three independent experiments, each in duplicate.
as §3

The test system of data set [4] is HUVECtert cells. Nature of the data set: Cell viability of HUVECtert cells (XTT). Type of data set: cell-based. Set-up: key: ^+ compound significantly impaired cell viability at concentration of 30 µM. The conditions noted are these: 30 µM, decrease of viability by more than 30%. On the procedure: Effects on IL-8 expression were tested in hTERT-immortalized HUVECtert cells stimulated with lipopolysaccharide (LPS, 100 ng/mL, Sigma-Aldrich), with BAY 11-7082 (5 µM) as positive control. Activity screening was performed in sextuplicate. Impact of test samples on cell viability was determined after 6 h of stimulation by XTT. Incubation medium was removed, and 40 µL serum-free medium, containing XTT (Thermo Fisher Scientific, final concentration 200 µg/mL) and phenazine methyl sulfate (TCI Europe N.V., final concentration: 25 µM) were added to each well. After incubation for 2 h, absorbance was measured at 450 nm. Samples decreasing cell viability by more than 30% were considered to negatively influence cell viability.
In general terms: Formazan colour is commonly taken as a measure of viable cells.

[5] abbreviates: LPS/IFNγ-stimulated RAW macrophages.
Setting [6] is: Mus musculus, Macrophage, LPS/IFNγ-stimulated RAW macrophages.

Molecules are shown by their SMILES.

Consider `C=C[C@H]1[C@H](O[C@@H]2O[C@H](CO)[C@@H](O)[C@H](O)[C@H]2O)OC=C(C(=O)OC)[C@H]1CC(=O)O` [Compound 4, Secoxyloganin, reference compound], for which, in data set [1] (30 µM), the “NFκB % Inhibition (30 µM)” value is on record as −17.25 ± 9.25%. The “IL-8 % Inhibition (30 µM)” value in data set [2] (30 µM) is −0.96 ± 6.01%. The “NO % Inhibition (30 µM)” value in data set [3] (setting [5]) was 5.85 ± 4.58%.
As to `O=c1cc(-c2ccc(O)c(O)c2)oc2cc(O[C@@H]3O[C@H](CO)[C@@H](O)[C@H](O)[C@H]3O)cc(O)c12` [Compound 7, luteolin-7-O-glucoside, reference compound], the “NFκB % Inhibition (30 µM)” value in data set [1] (30 µM) amounted to 0.68 ± 4.29%. Besides, the “effect on NF-κB activation” value in data set [1] is reported as “no activity”. Also, the “IL-8 % Inhibition (30 µM)” value in data set [2] (30 µM) is 7.42 ± 2.04%. The “effect on IL-8 expression” value in data set [2] is on record as “no activity”. Further, in data set [3] (setting [5]), the “NO % Inhibition (30 µM)” value amounted to 4.68 ± 9.82%. Besides, in data set [3], the “effect on NO production” value is “no activity”.
Take `O=c1cc(-c2ccc(O)c(O)c2)oc2cc(O)cc(O)c12` [Compound 18, luteolin, reference compound]: the inhibition at 30 µM was determined as 95.83 ± 0.01% in data set [1] (30 µM), 74.8 ± 2.15% in data set [2] (30 µM) and 56.4 ± 12.7% in data set [3] (setting [6]). In addition, the results for the IC50 in data set [1] and in data set [3] (setting [6]) were 6.84 µM and 31.8 µM, respectively.
Take `O=c1cc(-c2ccc(O)cc2)oc2cc(O)cc(O)c12` [Compound 21, apigenin]: the figures for the inhibition at 30 µM in data set [2] (30 µM) and in data set [3] (setting [6]) were 64.8 ± 3.03% and 24.3 ± 10.8%, respectively. For the same compound, in data set [2], half-maximal inhibition (IC50) required 18.9 µM.
With `COc1cc(-c2cc(=O)c3c(OC)cc(O)cc3o2)cc(OC)c1OC` [Compound 22, 7-hydroxy-5-methoxy-2-(3,4,5-trimethoxyphenyl)-chromen-4-one], the inhibition at 30 µM in data set [1] (30 µM) was 51.1 ± 2.86%; in data set [2] (30 µM), 13.2 ± 2.49%; in data set [3] (setting [6]) it was 8.22 ± 11.9%. Also, the “effect on NF-κB activation” value in data set [1] (listed as 7-hydroxy-5,3′,4′,5′-tetramethoxyflavone) is recorded as “weak inhibition”.
As to `O=c1cc(-c2ccc(O)cc2)oc2c(-c3c(O)cc(O)c4c(=O)cc(-c5ccc(O)cc5)oc34)c(O)cc(O)c12` [Compound 26, 5,7,5′,7,-Tetrahydroxy-2,2′-bis-(4-hydroxy-phenyl)-[8,8′]bichromenyl-4,4′-dione], the inhibition at 30 µM in data set [1] (30 µM) was 3.42 ± 3.15%; in data set [2] (30 µM) it was -2.05 ± 3.02%; in data set [3] (setting [6]) it was 9.61 ± 11.4%.
In the case of `COc1cc(-c2cc(=O)c3c(O)cc(O)c(-c4c(O)cc(O)c5c(=O)cc(-c6ccc(O)cc6)oc45)c3o2)ccc1O` [Compound 27, 5,7,5′,7,-Tetrahydroxy-2-(4-hydroxy3-methoxy-phenyl)-2′-(4-hydroxy-phenyl)-[8,8′]bichromenyl-4,4′-dione], the figures for the inhibition at 30 µM in data set [1] (30 µM), in data set [2] (30 µM) and in data set [3] (setting [6]) were 78.1 ± 8.86%, 3.5 ± 4.58% and 1.45 ± 7.78%, respectively. Besides, the midpoint of inhibition in data set [1], the IC50, lay at 19.6 µM. Moreover, in data set [1], the “effect on NF-κB activation” value is given as “moderately inhibited”.
For `COc1cc(-c2cc(=O)c3c(O)cc(O)c(-c4c(O)cc(O)c5c(=O)cc(-c6ccc(O)c(OC)c6)oc45)c3o2)ccc1O` [Compound 29, 5,7,5′,7,-Tetrahydroxy-2,2′-bis-(4-hydroxy-3-methoxy-phenyl)-[8,8′]bichromenyl-4,4′-dione], the inhibition at 30 µM in data set [1] (30 µM) was 31.2 ± 15.5%; in data set [2] (30 µM), 2.97 ± 9.92%; in data set [3] (setting [6]) it was -0.85 ± 3.84%. In addition, the “NF-κB Activity” value in data set [1] (class from Table 5 data, 30 µM) is listed as “(a)”.
On to `O=c1cc(-c2ccc(O)c(-c3c(O)cc(O)c4c(=O)cc(-c5ccc(O)cc5)oc34)c2)oc2cc(O)cc(O)c12` [Compound 32, amentoflavone, reference compound], for which the figures for the inhibition at 30 µM in data set [1] (30 µM), in data set [2] (30 µM) and in data set [3] (setting [6]) were 90.8 ± 3.43%, 9.35 ± 2.78% and 7.06 ± 10.6%, respectively. This compound also yielded an IC50 in data set [1] of 6.45 µM. The “effect on NF-κB activation” value in data set [1] is given as “potently inhibited”.
Regarding `COc1ccc(-c2cc(=O)c3c(O)cc(O)c(-c4cc(-c5cc(=O)c6c(O)cc(O)cc6o5)ccc4O)c3o2)cc1` [Compound 33, podocarpusflavone A, reference compound], the inhibition at 30 µM in data set [1] (30 µM) was 99.2 ± 1.25%; in data set [2] (30 µM), 40.2 ± 29.8%; in data set [3] (setting [6]), 3.42 ± 3.94%. Also, the concentration for half-maximal inhibition (IC50) in data set [1] came out at 3.44 µM; in data set [2] it was 47.9 µM. Further, the “effect on NF-κB activation” value in data set [1] is “potently inhibited”. In addition, in data set [2], the “effect on IL-8 expression” value is listed as “moderately inhibited”.
Turning to `C=Cc1c(C)c2cc3nc(c4c5[nH]c(cc6nc(cc1[nH]2)C(C)=C6CC)c(C)c5C(=O)[C@@H]4C(=O)OC)[C@@H](CCC(=O)O)[C@@H]3C` [Compound 52, pheophorbide A, reference compound], the inhibition at 30 µM in data set [1] (30 µM) was 74.7 ± 13.6%; in data set [2] (30 µM), 95.8%; in data set [3] (setting [6]), 5.48 ± 7.55%. Besides, the IC50 in data set [1] stood at 3.04 µM. Moreover, the “effect on NF-κB activation” value in data set [1] is listed as “pronounced inhibition”. Moreover, the “IL-8 Activity” value in data set [2] (class from Table 5 data, 30 µM) is recorded as “a/ct”. The “effect on IL-8 expression” value in data set [2] is “inhibited IL-8 production”. Besides, the “impaired cell viability (flag, IL-8 assay)” value in data set [4] is “+”. In addition, the “effect on NO production” value in data set [3] is on record as “did not inhibit”.

The term inhibition denotes the drop in the measured response relative to a control, in per cent. The IC50 is the concentration at which inhibition is half-maximal.

(Values after paper PMC9027581, “Characterization of Constituents with Potential Anti-Inflammatory Activity in Chinese Lonicera Species by UHPLC-HRMS Based Metabolite Profiling” (Metabolites, 2022).)
